Reference: ChEMBL document CHEMBL3763048, “Design and discovery of 3-aryl-5-substituted-isoquinolin-1-ones as potent tankyrase inhibitors” (Medchemcomm, 2015)
Active and inactive are the calls of the source. The calls are words filed in the database; no cut-off is given here.

What was measured:
[1] = Aqueous solubility of the compound in phosphate buffer at pH 7.4; assay type: physicochemical
[2] = Intrinsic clearance in mouse liver microsomes assessed per mg of protein; assay type: ADME; settings: read-out: CLH
[3] = test system: SW480; experiment: Induction of cellular DNA damage PARylation in human SW480 cells at >100 uM by Western blot analysis; assay type: functional, cell-based
[4] = Intrinsic clearance in human liver microsomes assessed per mg of protein; assay type: ADME; settings: read-out: CLH

solubility [1] [µM]	microsomal CLint [2] [µL/min/mg]	microsomal CLint [4] [µL/min/mg]	SMILES	Activity [3]
> 100			COc1cccc2c(=O)[nH]c(-c3ccc(CN(C)C)cc3)cc12	
> 100	10	5	Cc1cccc2c(=O)[nH]c(-c3ccc(CN4CCC(N(C)C)CC4)cc3)cc12	Active
> 100			CN(C)Cc1ccc(-c2cc3ccccc3c(=O)[nH]2)cc1	
